Test [1] concerns cyclooxygenase (6-keto-PGF1α release). The experiment in a line: Cyclooxygenase inhibition: 6-keto-PGF1α release from zymosan-stimulated mouse peritoneal macrophage cells. In kind it is cell-based. Conditions: Peritoneal macrophage cell; zymosan-stimulated mouse peritoneal macrophage cells, 10^-5 mole/l; read-out: In vitro % inhibition upon release of 6-keto-PGF1α. The text has this:
5. In vitro Determination of Cyclooxygenase Inhibition and 5-Lipoxygenase Inhibition
After a cell is activated, arachidonic acid contained in cell membranes is metabolized in two ways. Leucotrienes, inter alia leucotriene C4, are formed due to the action of the enzyme 5-lipoxyqenase (=5-LO), and prostanoids are formed due to the action of the enzyme cyclooxygenase (=CO). In in vitro systems these metabolites are secreted from the cell.
To evaluate the cyclooxygenase-inhibiting and 5-lipoxygenase-inhibiting properties of the test substances, their inhibitory activity on the biosynthesis of the arachidonic acid derivatives leucotriene C4 (=LTC4) and 6-keto-prostaglandin F1α (=6-keto-PGF1 α) was determined in vitro on mouse peritoneal macrophage cells. For this purpose the LTC4 and 6-keto-PGF1 α contents of a mouse peritoneal macrophage cell culture medium were determined by zymosan stimulation as described by Scott et al. (J. Exp. Med. 152 (1980), 324-335) and by Fradin et al., (Prostaglandins, 33 (1987), 579-589).
A cell suspension containing peritoneal cells from male mice 8-10 weeks old was obtained in a known manner. A solution marketed under the designation RPMI 1640 (Manufactured by Gibco) was used as the cell culture medium, to which heparin (10 international units/ml) and antibiotics were added according to the procedure of Bonney et al. (Biochem. J. 176 (1978) 422-433). The cell suspension was adjusted to a cell concentration of 10^6 cells per ml and distributed uniformly on titer dishes containing 24 1-ml titer cells (wells). These were kept for two hours in a humidified incubator filled with air enriched with 7% CO2. Cells not adhering to the titer well walls were then removed by washing. The remaining macrophage cells adhering to the walls were incubated for about 12 hours in a suspension medium to which 0.1% of bovine serum albumin (BSA=Bovine Serum Albumin) was added. The suspension medium was then replaced by a Hanks salt solution (=Hanks Balanced Salt Solution=HBSS) with 10 mmoles of Hepes (=hydroxyethylpiperazinoethanesulfonic acid) to which a 0.1% strength solution of the test substances in aqueous, 1% strength dimethylformamide or only the solvent had been added. After 15 minutes the arachidonic acid metabolism was stimulated by adding […] of zymosan (=glycoprotein mixture isolated from cell walls of beer yeast, Saccharomyces cerevisiae, Manufactured by Sigma Chemical Co., Munich) per titre cell. After 2 hours samples of the respective supernatant liquid in each cell were examined for their 6-keto-PGF1α and LTC4 contents by an enzyme immunoassay (=EIA). This EIA is carried out following the method of Pradelles et al. (Analytical Chem. 57 (1985), 1170-1173). The determination of LTC4 and the determination of 6-keto-PGF1α were each carried out on suitable dilutions of the samples (1:50 to 1:250 for the LTC4 determination and 1:250 to 1:1,250 for the 6-keto-PGF1α determination) in comparison with a comparative scale. To determine the inhibiting effect of a 10^-5 molar concentration of the compounds, the amounts of reference eicosanoid were determined, and the inhibiting effect was calculated therefrom in % inhibition compared to the measurements of the zymosan controls.

Test [2] has as its system Passive cutaneous anaphylaxis (PCA). As to the kind of experiment: Inhibition of passive cutaneous anaphylaxis (PCA). The settings on record: Rattus norvegicus, 1 h; rats, 2 × 10^-5 mole/kg dose per os, one hour before ovalbumin challenge; read-out: % inhibition of Passive cutaneous anaphylaxis (PCA). In kind it is in vivo, Sprague-Dawley rats. The protocol:
(§1) 1. Determining Inhibition of Passive Cutaneous Anaphylaxis (PCA) and Histamine-Induced Anaphylactoid Cutaneous Reaction
The PCA reaction is carried out following the methods described by Goose et al. (J.N. Immunology 16 (1969), 749) and by Martin et al. (Arch. Pharmacol. 316 (1981), 186).
The IgE-rich ovalbumin antiserum used in the test was obtained from immunized Brown-Norway rats. The were immunized with an intraperitoneal injection of a mixture of 100 μg of ovalbumin with a Bordetella pertussis suspension (Vaxicoq™, Manufactured by Institute Merieux, containing 5×10^9 organisms and 1.25 mg Al(OH)3). After 20 days the animals were re-immunized with a further intraperitoneal injection of a solution of 10 μg ovalbumin in 0.5 ml physiological saline solution. After a further four days the blood was removed from the animals and centrifuged. The resulting antiserum was stored at -20° C. until use.
(§2) The inhibition of the passive cutaneous anaphylaxis and of the anaphylactoid cutaneous reaction induced by histamine was determined as follows:
Sprague-Dawley rats having a body weight of 150-180 g were injected intradermally in one flank with 50 μl of a 1:75 dilution of the IgE-rich ovalbumin antiserum in physiological saline solution to passively sensitize them to ovalbumin.
24 hours after sensitization a solution of 8.25 mg/kg of ovalbumin and 26.4 mg/kg of a blue dye (Evans's Blue) was administered to the rats intravenously according to Martin et al. to trigger passive cutaneous anaphylaxis.
(§3) On the day of the experiment the test substances were dissolved in distilled water which contained 1 vol. % dimethylformamide and 1 vol. % of Tween™ 20 (=polyoxyethylene (20) sorbitan monolaurate). One hour before administration of the ovalbumin challenge, each animal was orally administered 2×10^-5 mole/kg of test substance in 0.5 ml of solution. For comparison purposes a control group received only the solvent.
(§4) The edematous anaphylactic (PCA) and anaphylactoid (histamine-induced) reactions caused by the stimulation of the intravenous ovalbumin injection, which manifested themselves by edema formation, swelling and exudation of blue dye, were evaluated 30 minutes after their initiation by the intravenous ovalbumin injection. This was done by visually determining the extent to which the blue dye emerged at the sites of edema formation. The percentage inhibition of anaphylactic and anaphylactoid reactions induced by the test substances in comparison with the reactions of the control animals not treated with any test substance was determined using comparison scales.
(§5) The results obtained using compounds of formula I according to the foregoing test methods are shown in the following Table A. The example numbers given for the compounds of formula I relate to the subsequent preparative examples.

Test [3] deals with Histamine-induced anaphylactoid reaction. As to the kind of experiment: Inhibition of histamine-induced anaphylactoid cutaneous reaction. Format: in vivo, Sprague-Dawley rats. The settings on record: Rattus norvegicus, 1 h; rats, 2 × 10^-5 mole/kg dose per os, one hour before challenge; read-out: % inhibition of Histamine-induced anaphylactoid reaction. The protocol: as §1, §2
To determine the histamine-induced anaphylactoid skin reaction, the animals are injected intradermally in the flank opposite to the antiserum administration with 50 μl of a physiological saline solution containing 0.8 mg/ml histamine directly before the intravenous injection of the solution containing the ovalbumin and the blue dye.
as §3, §4, §5

As a reminder, the inhibition is the change of the read-out against control, counted positive when it falls.

Turning to `O=C1Nc2ccccc2SC1CCCN1CCC(Nc2nc3ccccc3n2Cc2ccc(F)cc2)CC1` (stereo not drawn) [Example 8], in test [1], the inhibition at 10 µM was 40%. Also, the inhibition in vivo at 20 µmol/kg in test [2] and in test [3] was 100% each time.

The values above are taken from US5283243A, “Piperidinoalkylbenzoxazine and piperidinoalkylbenzothiazine compounds, and medicaments containing them” (Kali-Chemie Pharma GmbH, priority 1990, dated 1994).
